Where two headings read alike, the source gives them in different places.
How the values were obtained:
[1] = Density gradient analysis of fresh, quickly crystallized sulfathiazole samples; type: physicochemical; details: relative amount of form in density gradient; benzene/chloroform to tetrachloroethylene gradient
Source text: Our density gradient methodology is a refinement and extension to the pharmaceutical industry of existing well-established methodologies in other fields. [Bomstein & Steberl, 1959; Kind & Summerscales, 1966; US 2004/6,709,871 B2; Richards, 1999; ASTM D 1505-98; ISO 1183-2:2004; Yanagi, 2010; Doom, 2010; Chernov, 2009a.b; Moshammer, 2009; Fleurier, 2009; Kato, 2009; Deng, 2008, 2009; Park, 2008; Lu, 2006; Hersam, 2006]. A density gradient is made with a “gradient maker” consisting of two chambers connected through a stopcock and with a second stopcock on one of the containers to an outflow tube. A mixer is used in the outflow chamber.
We have developed this technique to optimize reliability and visibility of the resulting separated materials. In particular, we have created a device that permits the formation of identical gradients in one overall unobstructed container (see FIG. 3 and FIG. 4). These columns are at the outer wall of the overall cylindrical container. A central black column permits viewing of the materials in each column individually. The tubes that will contain the samples of crystalline material are open at the bottom; the gradient maker fills all columns simultaneously forming identical gradients.
A density gradient was prepared in the device described above using a mixture of benzene and chloroform (ρ=1.32 g/cm^3) as one liquid and tetrachloroethylene (ρ=1.62 g/cm^3) as the other.
Fresh crystalline samples of solid sulfathiazole were prepared by crystallizing about 50 mg of sulfathiazole (Sigma-Aldrich lot 028K1522) from water, methanol, ethanol, isopropanol and n-butanol by dissolving them at about 55° C. and then cooling to ambient temperature to form crystals at which point material was harvested. All materials were made at the same time, isolated within an hour of each other and dried with a stream of argon gas.
Based on the density gradient analysis, this rapid crystallization gives from water a mixture of forms III and IV in about equal amount, from both methanol and ethanol form II and III, from isopropanol a mixture of forms I, II and III and from n-butanol form I. The bands for this last material are distinctly more compact than those of the other forms.
One of the major benefits of the gradient method is that it provides an immediate visual report of the number of materials in an API preparation. A qualitative interpretation of the relative amounts of components in the gradient is easily made. A more quantitative estimate could be obtained by a simple light scattering analysis with simple added apparatus that performs either transmission or 90 degree scattering measurements. Calibration of the light scattering signal as a function of the amount of API could be performed using a sample in a very steep gradient (and thus not separated). This would make this a semi-quantitative method.

[2] = polymorphic form expected for the crystallization solvent, previous work [Parmar, 2007]; cited from earlier work
[3] = cited from earlier work
[4] = Seeding experiment in n-propanol with flotation density test; type: physicochemical; details: crystals slowly grown in n-propanol at ambient temperature, seeded with material of form III density
Source text: Parmar, 2007 states that crystallization from n-propanol yields form I and that that form is stable in this solvent. In a seeding experiment we harvested material that was the right density for form III and used this to seed crystallization in n-propanol. The resulting crystals, slowly grown at ambient temperature, are not consistent with form I or form III, but are consistent with form II. The density by a flotation density test indicates this material to be form II. The observation that form II is obtained in this case is quite probably due to the presence of a small amount of form II in the predominantly form III sample. […] That is not the case with our seed crystals.

SMILES	Form II [1]	Form III [1]	Form IV [1]	Expected [23] [2]	further results
Nc1ccc(S(=O)(=O)Nc2nccs2)cc1 [Tube E, sulfathiazole]	–	–	–	Form I	Form I [1]: major
Nc1ccc(S(=O)(=O)Nc2nccs2)cc1 [form II, sulfathiazole]	–	–	–	–	density ([3]; single crystal x-ray results [Blagden, 1998], listed as II): 1.551
Nc1ccc(S(=O)(=O)Nc2nccs2)cc1 [form III, sulfathiazole]	–	–	–	–	density ([3]; single crystal x-ray results [Blagden, 1998], listed as III): 1.569
Nc1ccc(S(=O)(=O)Nc2nccs2)cc1 [form IV, sulfathiazole]	–	–	–	–	density ([3]; single crystal x-ray results [Blagden, 1998], listed as IV): 1.595
Nc1ccc(S(=O)(=O)Nc2nccs2)cc1 [form I, sulfathiazole]	–	–	–	–	density ([3]; single crystal x-ray results [Blagden, 1998], listed as I): 1.500
Nc1ccc(S(=O)(=O)Nc2nccs2)cc1 [sulfathiazole]	–	–	–	–	polymorphic form by flotation density test [4]: form II
Nc1ccc(S(=O)(=O)Nc2nccs2)cc1 [form V, sulfathiazole]	–	–	–	–	density ([3]; synchrotron x-ray powder diffraction study [Chan, 1999]): 1.484
Nc1ccc(S(=O)(=O)Nc2nccs2)cc1 [Tube A, sulfathiazole]	minor	major	major	Form IV	–

More lines, main results first:

Form II [1]	Form III [1]	Form IV [1]	SMILES	Expected [23] [2]	further results
major	major	minor	Nc1ccc(S(=O)(=O)Nc2nccs2)cc1 [Tube C, sulfathiazole]	Form IV	–
major	minor	very	Nc1ccc(S(=O)(=O)Nc2nccs2)cc1 [Tube D, sulfathiazole]	Form III	Form I [1]: very
major	major	minor	Nc1ccc(S(=O)(=O)Nc2nccs2)cc1 [Tube B, sulfathiazole]	Form II	–

— patent US9089850B2, “Method and apparatus for separation of pharmaceutical materials on the basis of their density” (Syracuse University, priority 2009, dated 2015)
